Test results taken from patent US6362370B1, “Wood preservatives” (Lonza AG, priority 1996, dated 2002).

Tests used:
[1] = Penetration depth in sapwood blocks after immersion in aqueous QAC solution; assay type: physicochemical; conditions: sapwood blocks 2.5 cm×5.0 cm×12 cm, immersion in 5% strength aqueous solution, 24 hours at 20° C.
Procedure: Fine sapwood blocks of dimensions 2.5 cm×5.0 cm×12 cm were impregnated with the QAC shown in the table by immersion in an aqueous solution of in each case 5% strength. The immersion time was a standard 24 hours (at 20° C.).

[2] = tested on: fungus-infested soil (forest soil); experiment: Soil burying method according to Schwammkeller: service life of impregnated beechwood bars; conditions: beechwood bars 1 cm×1 cm×40 cm, immersion in 0.5% strength solution for 24 hours, buried in fungus-infested soil, time until flexural breaking strength has fallen to 25% of the initial value
Procedure: Bars of beechwood (1 cm×1 cm×40 cm) were impregnated by immersion in a 0.5% strength solution of the SAC for 24 hours and then tested by the soil burying method according to Schwammkeller. For this, treated and untreated timbers were buried in fungus-infested soil (forest soil). The service life here is defined as the time after which the flexural breaking strength has fallen to 25% of the initial value of (untreated) comparison timbers of the same dimensions and type of wood.

Row | Substance | Penetration depth [1] | Service life [2] | Service life ([2]; listed as 10) | Service life ([2]; listed as V5)
1 | N,N-didecyl-N-methyl-N-(polyoxyethyl)ammonium [Example 9] | 6-8 mm | – | – | –
2 | N,N-didecyl-N-methyl-N-(polyoxyethyl)ammonium [Example V3, reference compound] | 2-3 mm | 4 months | – | –
3 | N,N-didecyl-N-methyl-N-(polyoxyethyl)ammonium [Example V4, reference compound] | 3-4 mm | – | – | –
4 | N,N-didecyl-N-methyl-N-(polyoxyethyl)ammonium hydroxyacetate [Example 8] | 7-10 mm | – | – | –
5 | N,N-didecyl-N-methyl-N-(polyoxyethyl)ammonium lactate [Example 7] | 7-8 mm | >9 months | – | –
6 | N,N-dimethyl-N-benzyl-N-(coconut alkyl)ammonium [Example 5] | 6-8 mm | – | >9 months | –
7 | N,N-dimethyl-N-benzyl-N-(coconut alkyl)ammonium [Example 6] | 7-8 mm | – | – | –
8 | N,N-dimethyl-N-benzyl-N-(coconut alkyl)ammonium [Example V1, reference compound] | 1-3 mm | – | – | 3 months
9 | N,N-dimethyl-N-benzyl-N-(coconut alkyl)ammonium [Example V2, reference compound] | 2-3 mm | – | – | –
